Tested on: not listed separately
Test: log P by HPLC on reversed phase columns (Method L0; [a] acidic, [b] neutral range)
Conditions: HPLC on reversed phase columns (Method L0)
Procedure: Calibration was done with straight-chain alkan-2-ones (with 3 to 16 carbon atoms) with known log P values (measurement of log P values using retention times with linear interpolation between successive alkanones). Lambda-max-values were determined using UV-spectra from 200 nm to 400 nm and the peak values of the chromatographic signals.

In order of rising “log P” value:
1. Cc1nn2c(C(C)C)c(C(=O)N[C@H]3CCOc4ccccc43)cnc2c1-c1ccc2c(c1)CCC2=O [Example 250]  3.75
2. Cc1nc2c(-c3cc(Cl)cc(Cl)c3)c(C)nn2c(C)c1C(=O)N[C@H]1CCOc2ccccc21 [Example 268]  4.76
3. CC(C)c1c(C(=O)N[C@H]2CCc3ccccc32)cnc2c(-c3cc(Cl)cc(Cl)c3)c(S(=O)(=O)C(C)C)nn12 [Example 214]  4.85
4. CCSc1nn2c(C(C)C)c(C(=O)N[C@H]3CCOc4ccccc43)cnc2c1-c1cc(Cl)cc(Cl)c1 [Example 200]  6.71
5. CCSc1nn2c(C(C)C)c(C(=O)N[C@H]3CCc4ccccc43)cnc2c1-c1cc(Cl)cc(Cl)c1 [Example 201]  6.93
6. CC(C)Sc1nn2c(C(C)C)c(C(=O)N[C@H]3CCOc4ccccc43)cnc2c1-c1cc(Cl)cc(Cl)c1 [Example 198]  7
7. CC(C)Sc1nn2c(C(C)C)c(C(=O)N[C@H]3CCc4ccccc43)cnc2c1-c1cc(Cl)cc(Cl)c1 [Example 199]  7.34

Same assay, conditions: HPLC on reversed phase columns (Method L0); last column of Table 1, column head not shown

In order of rising “log P” value:
1. COc1c(C(=O)N[C@H]2CCc3ccccc32)cnc2c(-c3c(F)cccc3Cl)c(C)nn12 [Example 513]  2.96
2. Cc1nn2c(C(C)C)c(C(=O)N[C@H]3CCc4ccccc43)cnc2c1-n1cccn1 [Example 426]  3.29
3. Cc1nn2c(C(F)(F)F)c(C(=O)N[C@H]3CCc4ccccc43)cnc2c1-c1c(F)cccc1F [Example 410]  4.16
4. Cc1nn2c(C(F)(F)F)c(C(=O)N[C@H]3CCc4ccccc43)cnc2c1-c1ccccc1Cl [Example 412]  4.43
5. CC(C)c1c(C(=O)N[C@H]2CCc3ccccc32)cnc2c(-c3cccc(F)c3)c(C3CC3)nn12 [Example 416]  5.41
6. CC(C)c1c(C(=O)N[C@H]2CCc3ccccc32)cnc2c(-c3cccc(Cl)c3)c(C3CC3)nn12 [Example 411]  5.87
7. CC(C)c1c(C(=O)N[C@H]2CCc3ccccc32)cnc2c(-c3ccccc3Cl)c(C3CC3)nn12 [Example 414]  5.87
8. CC(C)c1c(C(=O)N[C@H]2CCc3ccccc32)cnc2c(-c3cccc(C(F)(F)F)c3)c(C3CC3)nn12 [Example 415]  5.94

Same assay, conditions: HPLC on reversed phase columns, Method L0, [a] acidic range

In order of falling “logP (Method L0) [a]” value:
1. CC(C)c1c(C(=O)N[C@H]2CCCc3ccccc32)cnc2c(-c3cc(Cl)cc(Cl)c3)c(Cl)nn12 [Example 64]  6.69
2. Cc1ccc2c(c1)[C@@H](NC(=O)c1cnc3c(-c4cccc(Cl)c4)c(C)nn3c1C(C)C)CCC2 [Example 109]  5.9
3. Cc1ccc2c(c1)[C@@H](NC(=O)c1cnc3c(-c4ccc(Cl)cc4)c(C)nn3c1C(C)C)CCC2 [Example 113]  5.88
4. CC(C)c1c(C(=O)N[C@H]2CCCc3ccccc32)cnc2c(-c3ccc(Cl)cc3)c(Cl)nn12 [Example 76]  5.79
5. Cc1c(C(=O)N[C@H]2CCCc3ccccc32)cnc2c(-c3cc(Cl)cc(Cl)c3)c(Cl)nn12 [Example 68]  5.78
6. CC(C)c1c(C(=O)N[C@H]2CCCc3ccccc32)cnc2c(-c3ccc(Cl)cc3)c(C(F)(F)F)nn12 [Example 54]  5.76
7. CC(C)c1c(C(=O)N[C@H]2CCCc3ccccc32)cnc2c(-c3cccc(Cl)c3)c(C(F)(F)F)nn12 [Example 51]  5.74
8. Cc1c(C(=O)N[C@H]2CCCc3ccccc32)cnc2c(-c3cc(Cl)cc(Cl)c3)c(C(F)(F)F)nn12 [Example 82]  5.66
9. Cc1ccc2c(c1)[C@@H](NC(=O)c1cnc3c(-c4ccc(F)c(F)c4)c(C)nn3c1C(C)C)CCC2 [Example 112]  5.55
10. CC(C)c1c(C(=O)N[C@H]2CCc3ccccc32)cnc2c(-c3ccc(Cl)cc3)c(C(F)(F)F)nn12 [Example 49]  5.48
11. Cc1c(C(=O)N[C@H]2CCc3ccccc32)cnc2c(-c3cc(Cl)cc(Cl)c3)c(Cl)nn12 [Example 66]  5.47
12. O=C(N[C@H]1CCc2ccccc21)c1cnc2c(-c3cc(Cl)cc(Cl)c3)c(Cl)nn2c1 [Example 67]  5.39
13. Cc1nn2c(C(C)C)c(C(=O)N[C@H]3CCOc4ccc(Cl)cc43)cnc2c1-c1ccc(Cl)cc1 [Example 106]  5.36
14. Cc1c(C(=O)N[C@H]2CCCc3ccccc32)cnc2c(-c3cccc(C(F)(F)F)c3)c(Cl)nn12 [Example 69]  5.03
15. Cc1c(C(=O)N[C@H]2CCCc3ccccc32)cnc2c(-c3cccc(C(F)(F)F)c3)c(C(F)(F)F)nn12 [Example 83]  5.03
16. Cc1c(C(=O)N[C@H]2CCCc3ccccc32)cnc2c(-c3ccc(Cl)cc3)c(C(F)(F)F)nn12 [Example 53]  4.97
17. CC(C)c1c(C(=O)N[C@H]2CCc3ccccc32)cnc2c(-c3ccc(F)cc3)c(C(F)(F)F)nn12 [Example 162]  4.95
18. Cc1c(C(=O)N[C@H]2CCCc3ccccc32)cnc2c(-c3cccc(Cl)c3)c(C(F)(F)F)nn12 [Example 86]  4.94
19. Cc1c(C(=O)N[C@H]2CCCc3ccccc32)cnc2c(-c3cccc(Cl)c3)c(Cl)nn12 [Example 58]  4.9
20. Cc1c(C(=O)N[C@H]2CCc3ccccc32)cnc2c(-c3cc(Cl)cc(Cl)c3)cnn12 [Example 65]  4.84
21. Cc1c(C(=O)N[C@H]2CCc3ccccc32)cnc2c(-c3cccc(C(F)(F)F)c3)c(C(F)(F)F)nn12 [Example 85]  4.77
22. CC(C)c1c(C(=O)N[C@H]2CCc3ccccc32)cnc2c(-c3cnc(F)c(F)c3)c(C(F)(F)F)nn12 [Example 163]  4.76
23. O=C(N[C@H]1CCc2ccccc21)c1cnc2c(-c3cc(Cl)cc(Cl)c3)cnn2c1 [Example 47]  4.74
24. Cc1c(C(=O)N[C@H]2CCc3ccccc32)cnc2c(-c3cccc(C(F)(F)F)c3)c(Cl)nn12 [Example 71]  4.73
25. Cc1c(C(=O)N[C@H]2CCc3ccccc32)cnc2c(-c3ccc(Cl)cc3)c(C(F)(F)F)nn12 [Example 57]  4.7
26. CC(C)c1c(C(=O)N[C@H]2CCc3ccccc32)cnc2c(-c3ccc(Cl)nc3)c(C(F)(F)F)nn12 [Example 164]  4.7
27. Cc1c(C(=O)N[C@H]2CCc3ccccc32)cnc2c(-c3cccc(Cl)c3)c(C(F)(F)F)nn12 [Example 55]  4.68
28. O=C(N[C@H]1CCc2ccccc21)c1cnc2c(-c3cccc(C(F)(F)F)c3)c(C(F)(F)F)nn2c1 [Example 87]  4.66
29. O=C(N[C@H]1CCc2ccccc21)c1cnc2c(-c3ccc(Cl)cc3)c(C(F)(F)F)nn2c1 [Example 80]  4.61
30. Cc1c(C(=O)N[C@H]2CCc3ccccc32)cnc2c(-c3cccc(Cl)c3)c(Cl)nn12 [Example 75]  4.6
31. O=C(N[C@H]1CCc2ccccc21)c1cnc2c(-c3cccc(Cl)c3)c(C(F)(F)F)nn2c1 [Example 50]  4.57
32. Cc1c(C(=O)N[C@H]2CCCc3ccccc32)cnc2c(-c3ccccc3Cl)c(C(F)(F)F)nn12 [Example 90]  4.5
33. CC(C)c1c(C(=O)N[C@H]2CCc3ccccc32)cnc2c(-c3ccc(F)nc3)c(C(F)(F)F)nn12 [Example 161]  4.35
34. Cc1c(C(=O)N[C@H]2CCCc3ccccc32)cnc2c(-c3cccc(Cl)c3)cnn12 [Example 44]  4.33
35. CC(C)c1c(C(=O)N[C@H]2CCOc3ccccc32)cnc2c(-c3cnn(CC(F)(F)F)c3)c(C(F)(F)F)nn12 [Example 129]  4.21
36. O=C(N[C@H]1CCc2ccccc21)c1cnc2c(-c3ccccc3Cl)c(C(F)(F)F)nn2c1 [Example 84]  4.15
37. Cc1c(C(=O)N[C@H]2CCc3ccccc32)cnc2c(-c3cccc(Cl)c3)cnn12 [Example 52]  4.04
38. Cc1nn2c(C(C)C)c(C(=O)N[C@H]3CCc4ccccc43)cnc2c1-c1ccc(Cl)c(C(=O)NC2CC2)c1 [Example 120]  3.78

Target: C. elegans Slo-1a (Caenorhabditis elegans, UniProt Q95V25)
Sequence (Q95V25 whole entry): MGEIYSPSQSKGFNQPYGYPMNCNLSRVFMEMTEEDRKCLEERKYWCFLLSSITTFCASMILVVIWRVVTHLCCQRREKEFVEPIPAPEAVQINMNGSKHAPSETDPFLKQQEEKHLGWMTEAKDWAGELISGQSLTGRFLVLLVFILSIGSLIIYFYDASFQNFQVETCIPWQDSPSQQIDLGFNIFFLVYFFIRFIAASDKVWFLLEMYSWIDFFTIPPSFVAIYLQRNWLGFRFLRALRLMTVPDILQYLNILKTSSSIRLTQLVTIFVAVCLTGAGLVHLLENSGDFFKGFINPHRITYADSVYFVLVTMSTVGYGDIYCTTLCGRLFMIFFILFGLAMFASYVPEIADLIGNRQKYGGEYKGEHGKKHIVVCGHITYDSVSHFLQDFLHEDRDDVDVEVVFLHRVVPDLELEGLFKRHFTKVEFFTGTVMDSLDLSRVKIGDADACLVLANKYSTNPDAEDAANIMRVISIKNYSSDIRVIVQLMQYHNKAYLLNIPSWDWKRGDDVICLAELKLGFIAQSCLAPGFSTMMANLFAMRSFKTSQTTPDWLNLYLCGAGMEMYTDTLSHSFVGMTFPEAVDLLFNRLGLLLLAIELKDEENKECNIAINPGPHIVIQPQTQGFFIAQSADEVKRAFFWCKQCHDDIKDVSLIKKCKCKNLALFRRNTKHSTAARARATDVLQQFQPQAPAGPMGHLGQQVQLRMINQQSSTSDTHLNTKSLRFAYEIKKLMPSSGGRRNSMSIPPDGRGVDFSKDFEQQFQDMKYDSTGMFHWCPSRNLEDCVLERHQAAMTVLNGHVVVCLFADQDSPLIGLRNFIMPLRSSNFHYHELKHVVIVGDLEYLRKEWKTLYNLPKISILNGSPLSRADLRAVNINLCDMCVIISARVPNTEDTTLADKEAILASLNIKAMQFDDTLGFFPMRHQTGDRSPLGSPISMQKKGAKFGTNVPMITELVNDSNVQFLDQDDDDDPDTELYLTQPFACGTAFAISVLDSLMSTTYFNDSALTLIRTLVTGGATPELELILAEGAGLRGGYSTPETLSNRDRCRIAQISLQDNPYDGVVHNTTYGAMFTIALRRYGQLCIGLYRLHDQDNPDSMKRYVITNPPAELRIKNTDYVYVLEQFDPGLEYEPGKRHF
Test: In vitro assay 1: C. elegans Slo-1a, action at a recombinant C. elegans CHO cell line (membrane potential measurement)
Conditions: CHO cells expressing C. elegans Slo-1a; voltage sensitive dye, FLIPR Tetra; negative decadic logarithm of EC50

In order of falling pE50:
1. Cc1nn2c(N(C)C)c(C(=O)N[C@H]3CCOc4ccccc43)cnc2c1-c1cc(C(F)(F)F)ccc1F [Example 547]  8.9
2. COc1c(F)ccc(-c2c(C)nn3c(N(C)C)c(C(=O)N[C@H]4CCOc5ccccc54)cnc23)c1F [Example 551]  8.9
3. Cc1nn2c(N3CCOCC3)c(C(=O)N[C@H]3CCOc4ccccc43)cnc2c1-c1c(F)ccc(Cl)c1F [Example 545]  8.8
4. Cc1nn2c(N(C)C)c(C(=O)N[C@H]3CCOc4ccccc43)cnc2c1-c1ccc(F)c(N(C)C)c1F [Example 550]  8.7
5. Cc1nn2c(N(C)C)c(C(=O)N[C@H]3CCOc4ccccc43)cnc2c1-c1cccc(Cl)c1F [Example 552]  8.7
6. Cc1nn2c(N(C)C)c(C(=O)N[C@H]3CCOc4ccccc43)cnc2c1-c1c(F)ccc(F)c1F [Example 554]  8.7
7. Cc1nn2c(N3CCOCC3)c(C(=O)N[C@H]3CCOc4ccccc43)cnc2c1-c1ccc(F)c(N(C)C)c1F [Example 543]  8.6
8. Cc1nn2c(N(C)C)c(C(=O)N[C@H]3CCOc4ccccc43)cnc2c1-c1cccc(F)c1F [Example 549]  8.4
9. Cc1nn2c(N3CCOCC3)c(C(=O)N[C@H]3CCOc4ccccc43)cnc2c1-c1c(Cl)cccc1Cl [Example 544]  8.3
10. Cc1ccccc1-c1c(C)nn2c(N(C)C)c(C(=O)N[C@H]3CCOc4ccccc43)cnc12 [Example 553]  8.2
11. Cc1nn2c(N(C)CCN3CCCC3=O)c(C(=O)N[C@H]3CCOc4ccccc43)cnc2c1-c1cc(Cl)cc(Cl)c1 [Example 560]  8.2
12. COCCOCCOCCN(C)c1c(C(=O)N[C@H]2CCOc3ccccc32)cnc2c(-c3cc(Cl)cc(Cl)c3)c(C)nn12 [Example 561]  8.2
13. Cc1nn2c(N(C)C3CC3)c(C(=O)N[C@H]3CCOc4ccccc43)cnc2c1-c1cc(Cl)cc(Cl)c1 [Example 555]  7.6
